The subject of one experiment is HLA-DRB1*04. The experiment in a line: HLA restriction with peptide-pulsed partially matched LCL (IFN-γ ELISA). The class given is cell-based, human. The settings on record: 10^−3 to 1 ug/ml peptide. The protocol: To evaluate the utility of the Crf1 p41 epitope for potential clinical application, we defined the HLA restriction of Crf1 p41-specific CD4^+ T clones from different donors by stimulation with peptide-pulsed partially matched LCLs. […] As presentation of the Crf1 p41 peptide could also be mediated by other MHC class II alleles, we verified the HLA restriction by stimulation of PBMC from additional donors.
HLA restriction was analyzed with partially matched allogeneic EBV-lymphoblastoid cell lines (LCL) (provided by Patricia Comoli and Inge Jedema) pulsed with 10^−3 to 1 ug/ml peptide using IFN-γ ELISA.
(ELISA stands for enzyme-linked immunosorbent assay.)

The subject of experiment [1] is T-cell lines of 7 donors with different MHC class II alleles. The experiment in a line: Epitope mapping of Crf1 peptides with IFN-γ ELISPOT. The experiment is classed as cell-based, human. The settings on record: 7 donors tested, peptide-pulsed autologous DC. An excerpt:
As the identification of potential protective fungal antigens is rather intricate due to the extensiveness of fungal genomes, we analyzed 6 different A. fumigatus recombinant proteins based on their previously reported immunogeneic reactivity in mice and humans^7,10. […] By contrast, GPI-anchored extracellular cell wall glucanase Crf1 and secreted protein peptidase induced high IFN-γ in 6 of 7 and 5 of 10 tested donors, respectively. The response was mediated by CD4^+ TH1 cells, as MHC class II blocking antibody nearly abrogated IFN-γ release (data not shown). Due to the broad response and the sequence similarity to the C. albicans orthologue Crh1, we focused in subsequent experiments on the protein Crf1. By epitope mapping of 7 healthy individuals with different MHC class II alleles, we identified 10 potential candidate epitopes (Table 1). Based on the results obtained by epitope mapping, the probability of antigen presentation by certain MHC class II alleles assessed by epitope prediction^11, previously reported immunogeneic reactivity^12 and sequence similarity to the C. albicans homologue Crh1, we then generated CD4^+ TH1 T-cell clones specific for the peptides p1, p22, p27, p41, p48, p59, p69 and p84 (FIG. 1a and Table 1).
A peptide library covering the complete Crf1 sequence consisting of 94 15-mer peptides overlapping by […] (aa) was divided into sub-pools of 10 peptides and 94 single peptides (p1-p94) (PANATecs). 3 11-mer peptides of p40/41 overlapping by 2aa ([…], […], HTYTIDWTKDA) were obtained from JPT Peptide Technologies.
For analysis of recombinant proteins and epitope mapping, T-cell lines were generated by incubation of 1×10^7 PBMC per well in 6-well cell culture plates with 5 μg/ml protein or peptide for 7d in the presence of 5 U/ml IL-2 (Proleukin, Chiron). Antigen specificity was analyzed by IFN-γ ELISA^42 after restimulation with autologous monocytes incubated overnight with 5 μg/ml protein in a responder to stimulator (R:S) ratio of 5:1. Epitope mapping was performed by IFN-γ ELISPOT^39 after stimulation with peptide-pulsed autologous DC at a R:S ratio of 10:1.

Another experiment deals with CD4^+ spleen cells. The experiment in a line: Proliferation assay of purified CD4+ spleen cells ([3H]thymidine). The experiment is classed as cell-based. The settings on record: mice untreated or vaccinated with A. fumigatus or C. albicans; 5 μg/mL peptide, 3 days. The protocol: A. fumigatus Crf1 protein mediates cross-protection to C. albicans. Mice were injected intranasally with resting A. fumigatus conidia 14 days before infection, or with purified Crf1 protein and murine CpG oligodeoxynucleotide 1862 14, 7 and 3 days before intragastric infection with C. albicans. Note (a) the reduced inflammatory cell recruitment and acanthosis in mice vaccinated with A. fumigatus conidia or Crf1 protein as opposed to control mice shown in FIG. 5a and c and (b) the increase in protective TH1 and regulatory T-cell transcription factors and cytokine levels. […] The results are expressed as mean cpm±SEM of triplicate cultures. […]
DC (1×10^5) and CD4^+ T-cells (5×10^5) were purified from spleens of mice untreated or vaccinated with A. fumigatus or C. albicans, by magnetic separation of MicroBeads (Miltenyi Biotec) and cocultured in round-bottom, 96-well plates in 200 μl complete medium, with and without anti-CD3ε antibody (clone 145-2C11; BD PharMingen), heat-inactivated Aspergillus or Candida (at a cell:fungi ratio of 2:1), 5 μg/mL of Crf1 p41 peptide. […] Incorporation into cellular DNA was measured by liquid scintillation counting. The results are expressed as mean cpm±SEM of triplicate cultures.

Experiment [2] relates to A. flavus, A. nidulans, A. niger, A. terreus, C. glabrata and C. krusei. Briefly: Cross-reactivity of T-cell clones to other Aspergillus and Candida species. The class given is cell-based. The settings on record: data not shown. An excerpt:
We then analyzed if our T-cell clones might cross-react to other clinically relevant Aspergillus and Candida species such as A. flavus, A. nidulans, A. niger, A. terreus, C. glabrata and C. krusei because they also express proteins with some sequence similarity to A. fumigatus Crf1. […] Thus, p41-specific TH1 cells represent a core repertoire in antifungal immune responses being reactive to A. fumigatus but also to C. albicans, the second most important pathogenic fungus in HSCT patients.
Fungal strains A. fumigatus D141, A. nidulans FGSCA4, C. albicans SC5314 and clinical isolates A. fumigatus, A. terreus, A. flavus, A. niger, C. albicans, C. glabrata and C. krusei were provided by Sven Krappmann, Joachim Morschhäuser and Reno Frei.

Results on 1 sequence are retold here after patent US20130315920A1, “Cross Protective Epitopes of Aspergillus Fumigatus and Candida Albicans” (Cell Medica Limited, priority 2010, published 2013).

As for “HTYTIDWTKDAVTWS (Peptide found in the Crf1 protein of Aspergillus fumigatus) [p41, Crf1 aa 161-175]”, the “Presentation / binding by HLA-DRB1*04” value was “presentation of the Crf1 p41 is mediated by HLA-DRB1*03, 04 and 13” in the experiment on HLA-DRB1*04; “has been shown to bind to HLA-DRB1*03, HLA-DRB1*13 and HLA-DRB1*04” in the experiment on HLA-DRB1*04 (listed as HTYTIDWTKDAVTWS). The No. of responders in experiment [1] was determined as 5. Further, the “Antigen-specific proliferation of CD4+ spleen cells” value in the experiment on CD4^+ spleen cells is “cross-protection could be mediated by T-cells recognizing the same epitope p41”. In addition, in experiment [2], the “Cross-reactivity to other Aspergillus and Candida species” value is “none of the Crf1 p27-, p41- and p59-specific T-cell clones showed any cross-reactivity to these fungi”.
